For series [1], the system named is E. coli. Nature of the series: Minimum inhibitory concentration by microdilution assay. The format is cell-based, Escherichia coli (ATCC 25922). The settings on record: for MIC E. coli: 37° C., 24 h. Here is the method: (§1) Staphylococcus aureus (ATCC 6538, gram-positive), Escherichia coli (ATCC 25922, gram-negative), Pseudomonas aeruginosa (gram-negative), and Candida albicans (ATCC 10231, yeast) were used as representative microorganisms to challenge the antimicrobial functions of the imidazolium salts. All bacteria and yeast were stored frozen at −80° C., and were grown overnight at 37° C. in Tryptic Soy broth (TSB) prior to experiments. Yeast was grown overnight at 22° C. in Yeast Mold (YM) broth. Subsamples of these cultures were grown for 3 h further and diluted to give an optical density value of 0.07 at 600 nm, corresponding to 3×10^8 CFU mL^−1 (MacFarland's Standard).
(§2) The oligomer compounds were dissolved in PBS at a concentration of 1 mg mL^1 and the minimal inhibitory concentrations (MICs) were determined by microdilution assay. Typically, a 100 μL microbial solutions (containing 3×10^8 cells mL^−1) were added to 100 μL of PBS containing the test imidazolium salts (normally ranging from […] in serial two-fold dilutions) in each well of the 96-well microtiter plate. The plates were incubated at 37° C. for 24 h with shaking at 300 rpm, with monitoring at the 2, 4, 6, 8, and 24 h time points. […] Broth and PBS solution containing microbial cells alone were used as negative controls, and experiments were run in triplicates.
(In broth dilution the organism is exposed to a series of concentrations in liquid medium.)

Series [2] deals with S. aureus. The series is described as above. The conditions noted are these: 37° C., 24 h. Format: cell-based, Staphylococcus aureus (ATCC 6538). Here is the method:
as §1, §2

Series [3] concerns P. aeruginosa. The description is as above. The format is cell-based, Pseudomonas aeruginosa. The conditions noted are these: 37° C., 24 h. Here is the method: as §1, §2
In series [4] the test system is C. Albicans. Described as above. Format: cell-based, Candida albicans (ATCC 10231). The conditions noted are these: 24 h. Here is the method:
as §1, §2

Series [5] has as its system 4 microbes (S. aureus, E. coli, P. aeruginosa, C. Albicans). Nature of the series: MIC over the 4 microbes tested (geometric mean). Format: cell-based. The conditions noted are these: geometric mean of the MICs of the 4 microbes. Here is the method: Staphylococcus aureus (ATCC 6538, gram-positive), Escherichia coli (ATCC 25922, gram-negative), Pseudomonas aeruginosa (gram-negative), and Candida albicans (ATCC 10231, yeast) were used as representative microorganisms to challenge the antimicrobial functions of the imidazolium salts. All bacteria and yeast were stored frozen at −80° C., and were grown overnight at 37° C. in Tryptic Soy broth (TSB) prior to experiments. Yeast was grown overnight at 22° C. in Yeast Mold (YM) broth. […] Typically, a 100 μL microbial solutions (containing 3×10^8 cells mL^−1) were added to 100 μL of PBS containing the test imidazolium salts (normally ranging from […] in serial two-fold dilutions) in each well of the 96-well microtiter plate. The plates were incubated at 37° C. for 24 h with shaking at 300 rpm, with monitoring at the 2, 4, 6, 8, and 24 h time points. […] Broth and PBS solution containing microbial cells alone were used as negative controls, and experiments were run in triplicates. The selectivity of the materials was also further assessed, by calculating the selectivity indices (SI), a measure and a comparison of safety and efficacies of each oligomer compound. […] Herein, the more stringent control of HC10 value was chosen over the HC50 value often reported in literature.

In series [6] the test system is rat red blood cells (RBCs). Nature of the series: Hemolysis. The format is cell-based. Here is the method:
Before these materials can be used in systemic applications, selectivity of these materials for microbial cells over mammalian cells should also be considered. Such selectivity is often determined by observation of hemolysis. Hemolysis was performed in the following manner, fresh rat red blood cells (RBCs) were diluted with PBS buffer to give an RBC stock suspension (4 vol % blood cells). A 100 μL aliquot of RBC stock was added to a 96-well plate containing […] oligomer compound stock solutions of various concentrations (serial 2-fold dilution in PBS). After 1 h incubation at 37° C., The contents of each well was pipetted into a microcentrifuge tube and then centrifuged at 4000 rpm for 5 min. Hemolytic activity was determined as a function of hemoglobin release by measuring OD576 of […] of the supernatant. A control solution that contained only PBS was used as a reference for 0% hemolysis. 100% hemolysis was measured by adding 0.5% Triton-X to the RBCs. [formula] The selectivity of the materials was also further assessed, by calculating the selectivity indices (SI), a measure and a comparison of safety and efficacies of each oligomer compound. […] Herein, the more stringent control of HC10 value was chosen over the HC50 value often reported in literature.

Series [7] deals with E. coli. Nature of the series: Time kill kinetics. The format is cell-based, Escherichia coli. Here is the method: Time kill studies of the soligome compounds against E. coli were also studied. The experimental setup for time kill kinetics was similar to the set up for MBC determination. The microbes were treated with oligomer compounds at 4MIC concentration, and samples were taken out of each well at 2 minutes. 500 μl of cell suspension was removed, rescued by a series of 10-fold dilutions with growth medium, and kept on ice until plating. For plating, 50 μl to 200 μl of the diluted samples was spread on growth medium agar plates and colonies were counted after overnight incubation at 37° C.

A short description of series [8]: Critical micellar concentration (pyrene fluorescent probe). The format is physicochemical. The conditions noted are these: for CMC in PBS: PBS buffer solution; for CMC in DI H2O: deionised water. Here is the method:
The CMC values of the oligomer compounds were determined in both deionised (DI) water and PBS, using a LS50B luminescence spectrometer (Perkin Elmer, United States) and employing pyrene as a fluorescent probe. A known weight of the oligomer compound was dissolved in either 2 mL of DI water or PBS in a 4 mL glass vial and serial dilutions were effected. 10 μL of pyrene stock solution in acetone (6.16×10^-5 M) was added to each vial containing 1 mL of a known concentration of the oligomer compound, and the acetone was then evaporated at room temperature. The solution was allowed to equilibrate overnight and the final concentration of pyrene in each vial was 6.16×10^-7 M. The excitation spectra of the solutions were scanned from 300 to 360 nm with an emission wavelength of 395 nm, and both the excitation and emission bandwidths were set at 2.5 nm. The intensity ratios ([…]/[…]) were plotted against polymer concentration. The CMC value was given by the intersection of the tangent to the curve at the inflection and the tangent of the points at low polymer concentrations.

A short description of series [9]: Gelling properties in solvents (tube inversion test). The format is physicochemical. Here is the method: Gels were prepared by weighing the imidazolium oligomer compounds directly into 4 mL glass vials and subsequently adding a known weight or volume of the solvent. The vials containing both the imidazolium and the solvent were either vortexed or sonicated to ensure that the imidazolium was dissolved and dispersed thoroughly before being placed in a 4° C. fridge overnight. The tube inversion test method was used to examine gel formation in different solvents.

Where [10] appears, read: lowest concentration that induces 10% or more hemolysis, rat RBCs, 1 h, 37° C., maximum tested 100,000 ppm.

Where two headings read alike, the source gives them in different places. A value given as a limit tells only on which side of the number the result lay.

As usually defined, the MIC is the lowest concentration that inhibits growth of the organism. Regarding `CCCCCCCC[n+]1ccn(C)c1.[Br-]` [1-Methyl-3-octyl imidazolium bromide, reference compound], in series [1] (Escherichia coli, Example 8, microbe not named, E. coli context), the MIC worked out at 1000 µg/mL. Also, the “MIC relative to Compound 2” value in [1] (ratio of MIC to that of Compound 2) is “more than 100 times”.
For `CCCCCCCCCC[n+]1ccn(Cc2ccc(C[n+]3ccn(Cc4ccc(C[n+]5ccn(Cc6ccccc6Cn6cc[n+](Cc7ccc(Cn8cc[n+](Cc9ccc(Cn%10cc[n+](CCCCCCCCCC)c%10)cc9)c8)cc7)c6)c5)cc4)c3)cc2)c1.[Br-].[Br-].[Cl-].[Cl-].[Cl-].[Cl-]` [Compound 3], in series [2], the “MIC S.A.” value came out at 4 µg/mL. For the same molecule, the “MIC E. coli” value in series [1] stood at 8 µg/mL. The “MIC P.A.” value in series [3] is 8 µg/mL. Besides, the “MIC C.A.” value in [4] was determined as 31 µg/mL. For the same molecule, the “MIC GM” value in series [5] is 9.44 µg/mL. The molecule further returned an HC10 in series [6] of 500 ppm. Besides, the “fast killing in words” value in [7] (E. coli time kill) is “instantaneous elimination”. In series [7] (E. coli, 4MIC, two minutes), the “% kill” value is listed as greater than 99.9%. The Log reduction in series [7] (E. coli, 4MIC, two minutes) came to 3.49. Besides, the “sharp point of inflection indicating the critical micellar concentrations” value in series [8] (FIG. 4, deionized water) is “not observed”. For the same molecule, the State in solvent entry in [9] (Acetone) was “Insoluble”; in [9] (Acetonitrile), “Insoluble”; in series [9] (EtOH), “Gel”; in series [9] (Ethylene glycol), “Solution”; in series [9] (Glycerol), “Solution”; in [9] (nBuOH), “Gel”. Also, the State in solvent result in [9] (nPrOH) was “Gel”. Also, the “Concentration to form gel” value in series [9] (EtOH) was “(12 wt %)”; in series [9] (nBuOH) it was “(7.9 wt %)”; in [9] (nPrOH) it was “(7.9 wt %)”.
`CCCCCCCCCCCCCC[n+]1ccn(Cc2ccc(C[n+]3ccn(Cc4ccc(C[n+]5ccn(Cc6ccccc6Cn6cc[n+](Cc7ccc(Cn8cc[n+](Cc9ccc(Cn%10cc[n+](CCCCCCCCCCCCCC)c%10)cc9)c8)cc7)c6)c5)cc4)c3)cc2)c1.[Br-].[Br-].[Cl-].[Cl-].[Cl-].[Cl-]` [Compound 5]: the “MIC S.A.” value in [2] came out at 4 µg/mL. Further, the “MIC E. coli” value in series [1] was 16 µg/mL. Further, the “MIC P.A.” value in series [3] was determined as 16 µg/mL. Also, the “MIC C.A.” value in series [4] was determined as 31 µg/mL. Further, the “MIC GM” value in series [5] is 13.35 µg/mL. Further, the HC10 in series [6] (setting [10]) is 15 ppm. For the same molecule, the “CMC in PBS” value in series [8] is recorded as 4.9 ppm. Further, the “CMC in DI H2O” value in series [8] is given as 200.3 ppm. Also, the State in solvent entry was “Insoluble” in series [9] (Acetone); “Insoluble” in series [9] (Acetonitrile); “Gel” in series [9] (EtOH); “Solution” in [9] (Ethylene glycol); “Solution” in series [9] (Glycerol); “Gel” in series [9] (nBuOH). Also, the State in solvent entry in series [9] (nPrOH) was “Gel”. For the same molecule, the “Concentration to form gel” value in series [9] (EtOH) is “(12.9 wt %)”; in series [9] (nBuOH), “(5.3 wt %)”; in series [9] (nPrOH), “(5.3 wt %)”.
`CCCCCCCCCCCCCCCC[n+]1ccn(Cc2ccc(C[n+]3ccn(Cc4ccc(C[n+]5ccn(Cc6ccccc6Cn6cc[n+](Cc7ccc(Cn8cc[n+](Cc9ccc(Cn%10cc[n+](CCCCCCCCCCCCCCCC)c%10)cc9)c8)cc7)c6)c5)cc4)c3)cc2)c1.[Br-].[Br-].[Cl-].[Cl-].[Cl-].[Cl-]` [Compound 6]: the “MIC S.A.” value in series [2] was found to be 8 µg/mL. Moreover, in [1], the “MIC E. coli” value turned out to be 16 µg/mL. Besides, the “MIC P.A.” value in series [3] turned out to be 16 µg/mL. Further, in series [4], the “MIC C.A.” value was determined as 62 µg/mL. Also, the “MIC GM” value in series [5] amounted to 18.88 µg/mL. Also, the HC10 in series [6] (setting [10]) was 15 ppm. For the same molecule, in [8], the “CMC in PBS” value was found to be 1.3 ppm. Moreover, the “CMC in DI H2O” value in series [8] is listed as 38.5 ppm. The State in solvent entry in series [9] (Acetone) was “Insoluble”; in series [9] (Acetonitrile), “Insoluble”; in series [9] (EtOH), “Gel”; in [9] (Ethylene glycol) it was “opaque gels and Gel”; in series [9] (Glycerol), “opaque gels and Gel”; in series [9] (nBuOH) it was “Gel”. Moreover, the State in solvent entry in [9] (nPrOH) is recorded as “Gel”. Also, the “Concentration to form gel” value is recorded as “(9.6 wt %)” in [9] (EtOH); “(4.7 wt %)” in series [9] (Ethylene glycol); “(6.3 wt %)” in series [9] (Glycerol); “(6.9 wt %)” in [9] (nBuOH); “(6.9 wt %)” in [9] (nPrOH).
Regarding `[Br-].[Br-].[Cl-].[Cl-].[Cl-].[Cl-].c1ccc(Cn2cc[n+](Cc3ccc(Cn4cc[n+](Cc5ccc(Cn6cc[n+](CC7CCCCC7)c6)cc5)c4)cc3)c2)c(Cn2cc[n+](Cc3ccc(Cn4cc[n+](Cc5ccc(Cn6cc[n+](CC7CCCCC7)c6)cc5)c4)cc3)c2)c1` [Compound 7], in series [2], the “MIC S.A.” value came to 8 µg/mL. Moreover, the “MIC E. coli” value in series [1] amounted to 16 µg/mL. In series [3], the “MIC P.A.” value amounted to 16 µg/mL. Also, the “MIC C.A.” value in series [4] stood at 31 µg/mL. Also, the “MIC GM” value in series [5] is 15.87 µg/mL. In addition, the HC10 in series [6] (setting [10]) is recorded as 12500 ppm. In addition, the Gel formation entry in series [9] (any of the solvents) is “not able to form gels”.
